Test results published in patent US20140371159A1, “IN VITRO METHOD FOR MODIFYING THE DEPLETION PROFILE OF TREG CELLS PRESENT IN A TOTAL SPLENOCYTE POPULATION OF A BIOLOGICAL SAMPLE BY MEANS OF THE ISOLATION, CULTURING AND EXPOSURE THEREOF TO AN ATP AND POLYMIXIN B MEDIUM” (Universidad de Santiago de Chile, priority 2011, published 2014).
“Also recorded” adds a separate entry of the source. Like-named read-outs stand apart in the source and are kept apart here.

Columns and labels:
[1] = system: P2X7 receptor (CD4+CD25+ population); assay: Effect of P2X7 antagonists on PMB/ATP-induced depletion of CD4+CD25+ population in splenocytes (Example 2); format: cell-based, mice; settings: for inhibition of the effect induced by ATP 100 μM over CD4+CD25+ population: BBG 100 nM (FIG. 5), A740003 (FIG. 6); for inhibition of the effect of low dose PMB and ATP over CD4+CD25+ populations: PPADS 10 μM, BBG 100 nM, PMB 1 μg/mL, ATP 60 μM and both, FIG. 4
Protocol: (§1) To determine the in vitro effect of polymyxin and other receptor modulators: P2X7, spleen from mice b6 and/or balbc were extracted, and splenocytes were isolated using repeated centrifugation, eliminating red cells for treatment with a lysis buffer ACK. Generally, the experiments were performed in cells obtained from animals b6. The obtained splenocytes are cultured in RPMI Medium supplemented with antibiotics and serum at 10%. Cells remain in rest for 2 hours at a concentration of 1 million cells/ml, after the same are breeding and incubated with purinergic agonists dissolved in PBS (ATP 0.1 μM-1,000 μM and NAD 0.01-1,000 μM), modulators of PMB receptor (0.001 up to 1,000 μg/m1) and gramicidine (0.001 up to 100 mg/ml). In the case of antagonists, these are used at concentrations which have been described as being more specific to P2X7 than other receptors.
Splenocytes were treated with PMB (Sigma-Aldrich, St Louis, Mont., USA) to different times and concentrations in presence of two modulators negative of the P2X7, PPADS activity and specific antagonist of P2X7 Brilliant Blue G (BBG) (see Brilliant Blue G Selectively Blocks ATP-Gated Rat P2X7 receptors. JIANG, 2000. 12). Cells were kept for 24 hrs in conditions of cell culture. Subsequently cells were recollected, blotted and analyzed by flow cytometry.

[2] = system: systemic regulating T lymphocytes in animal spleen; assay: In vivo Treg lymphocyte depletion in spleen after subcutaneous injection (Examples 3 and 5); design: species or system mice C57/BL6; settings: for death of systemic regulating T lymphocytes in spleen, drug alone: day 3 post challenge, PMB up to 400 μg total or ATP up to 50 μmoles, FIGS. 10A-10C
Protocol: To evaluate the complementary PMB activity in antitumor therapy, first is determined the effect of this over the in vivo regulating T population. To this, animals having 6-15 weeks and different sex were subcutaneously injected with a solution containing PMB alone (between 4 to 400 μg total), ATP (between 0,4 a 40 mg total) or mixture thereof, in ratios which are not affected therebetween, the CD4CD25 foxp3 population. Animals were dead are different post-injection time, spleen was extracted, erythrocytes eliminated and T lymphocytes present evaluated. […] To evaluate the complementary PMB activity in antitumor therapy, cells B16 were cultured under standard conditions in a culture DMEM medium with fetal bovine serum at 10% in a culture stove at 37° C. and 5% CO2. Cells were cultures and submitted to dead induced by deprivation of culture medium for 96 hours, into a culture stove. Cell bodies obtained were collected in sterility conditions and stored at a concentration estimated considering 1 million initial cells/ml. These bodies were prepared together with PMB and ATP inducing a reduction of T reg lymphocytes and injected 3 times each 7 days. After 7 days, once ended the immunization protocol, animals were challenged with 20.000 cells b16 alive obtained from exponential growing culture. Tumor growth was evaluated by hand after the first week daily and measure with a vernier calliper.
Mice were dead, the spleen was extracted and then marking with α-CD4, αCD25, α-CD8 and α-Foxp3 antibodies were made.
Subcutaneous injections were made in mice C57/BL6 of 6 weeks old with different concentrations of PMB, ATP or mixing concentrations of both. Mice were dead, the spleen extracted and subsequently markings were made with α-CD4, αCD25, α-CD8 and α-Foxp3 antibodies.

[3] = system: CD4+CD25+FOXP3+ lymphocyte populations (human Treg); assay: Effect on human Treg lymphocyte populations in PBML from peripheral blood (Example 6); format: cell-based; settings: 24 h; FIG. 11
Protocol: PBML 2×10^6 cells/ml obtained from peripheral blood extracted by centrifugation in gradient was cultured under standard conditions. Subsequently cells were treated with PMB (Sigma-Aldrich, St Louis, Mont., USA). The Treatments were kept for 24 h, in which cell remain in RPMI-1640 medium supplemented at 37° C. 5% CO2. After the treatments cells were harvested in buffer IF (PBS 2% SFB) cold. The obtained cells were blocked at 4° C. for 30 min in buffer IF. To determine the CD4+, CD8+ and CD4+CD25+FOXP3+ lymphocyte populations. After incubation cells were resuspended in buffer IF and analyzed by flow cytometry in the FACSCantoll equipment (Beckett Dickinson, Mississauga, Ontario, USA).

[4] = system: Melanome murine cells B16; assay: Antitumor immune therapy: immunization with B16 apoptotic bodies, then tumor challenge (Example 4); format: in vivo, mice; settings: for prophylaxis against the development of tumor b16: given with cell bodies; for protection of challenged animals (free of tumor): cell bodies (CA B16) alone or with the additive
Protocol: To evaluate the complementary PMB activity in antitumor therapy, first is determined the effect of this over the in vivo regulating T population. To this, animals having 6-15 weeks and different sex were subcutaneously injected with a solution containing PMB alone (between 4 to 400 μg total), ATP (between 0,4 a 40 mg total) or mixture thereof, in ratios which are not affected therebetween, the CD4CD25 foxp3 population. Animals were dead are different post-injection time, spleen was extracted, erythrocytes eliminated and T lymphocytes present evaluated. The results obtained herein allow determining that PMB injected deplexing regukating T lymphocytes under a transient way. To evaluate the complementary PMB activity in antitumor therapy, cells B16 were cultured under standard conditions in a culture DMEM medium with fetal bovine serum at 10% in a culture stove at 37° C. and 5% CO2. Cells were cultures and submitted to dead induced by deprivation of culture medium for 96 hours, into a culture stove. Cell bodies obtained were collected in sterility conditions and stored at a concentration estimated considering 1 million initial cells/ml. These bodies were prepared together with PMB and ATP inducing a reduction of T reg lymphocytes and injected 3 times each 7 days. After 7 days, once ended the immunization protocol, animals were challenged with 20.000 cells b16 alive obtained from exponential growing culture. Tumor growth was evaluated by hand after the first week daily and measure with a vernier calliper. The resuts obtained herein allow determining that PMB in vivo plus ATP and with cell bodies act in a prophylactic way increasing the number of animals free of tumor after the challenge with alive b16 cells.
Mice from 6 to 8 weeks old were treated with apoptotic bodies (CA) derived from Melanome murine cells B16 (2×10^4), with CA B16 plus ATP 500 μM, CA B16 plus PMB 10 mg/mL and with mixtures if the above three, the control was performed with the sterile immunization carrier PBS 1X.
Immunizations were performed by subcutaneous injection in the right flank in a final volume of 50 μL, at day 0, 7 and 21 of treatment. Day 0 marks the starting of the treatments. In day 28 post injection a tumor challenge was made. To that 10^4 tumor cells alive were injected in the left flank of the individual in a volume of 50 μL in sterile PBS 1X.
(§2) Mice were daily observed recording activity, weight and aspect according to parameters described by Morton y Griffiths, 1985 (see Morton D B, Griffiths P H. Guidelines on the recognition of pain, distress and discomfort in experimental animals and an hypothesis for assessment. Vet Rec. 1985 Apr. 20; 116(16):431-6). The tumor appearance was recorded and followed up to a tumor volume of 0.6 cm^3, in which animals were euthanized by cervical dislocation.

[5] = system: CD4+, CD8+ lymphocyte populations; assay: In vitro effect on CD8 and CD4 populations in total mouse splenocyte population, flow cytometry (Example 1); format: cell-based, mice C57/BL6
Protocol: To determine the in vitro effect of polymyxin and other receptor modulators: P2X7, spleen from mice b6 and/or balbc were extracted, and splenocytes were isolated using repeated centrifugation, eliminating red cells for treatment with a lysis buffer ACK. Generally, the experiments were performed in cells obtained from animals b6. The obtained splenocytes are cultured in RPMI Medium supplemented with antibiotics and serum at 10%. […]
Cells are cultured for different time under a RPMI culture environment supplemented with antibiotics (penicillin, streptomycin and fungizone) with serum fetal bovine serum at 10% in a culture stove at 37° C. and 5% CO2, which will be named as standard conditions. […] Samples were analyzed in a cytometer of low and analized to different subpopulations to different evaluated times. […]
Splenocytes 2×10^6 cells/ml obtained from spleen of mice C57/BL6 (6 weeks old) were cutured by 1 hour in plates 24 wells at 37° C., 5% CO2. […] After the incubation cells were re-suspended in buffer IF and analyzed by flow cytometry in the equipment FACSCantoll (Beckett Dickinson, Mississauga, Ontario, USA). […]

[6] = system: CD4+CD25+FOXP3+ lymphocyte populations (Treg); assay: In vitro effect on Treg cells in total mouse splenocyte population, flow cytometry (Example 1); format: cell-based, mice C57/BL6; settings: for modification of the ATP-induced effect on Treg cells: ATP response curve, FIGS. 3A and 3B
Protocol: as §1
Cells are cultured for different time under a RPMI culture environment supplemented with antibiotics (penicillin, streptomycin and fungizone) with serum fetal bovine serum at 10% in a culture stove at 37° C. and 5% CO2, which will be named as standard conditions. To evaluate the effect of the treatment over regulating T lymphocytes, samples were taken for the treatments (independients) at 24, 48 and 72 hours post challenge. The recovered lymphocytes were centrifuged at 800 g and processed to be marked with antibodies against CD4, CD8, CD25. […] Samples were analyzed in a cytometer of low and analized to different subpopulations to different evaluated times. The results obtained herein allow determining that PMB in vitro under the described conditions, selectively deplexing to splenocyte regulating T lymphocytes.
Splenocytes 2×10^6 cells/ml obtained from spleen of mice C57/BL6 (6 weeks old) were cutured by 1 hour in plates 24 wells at 37° C., 5% CO2. Lately, cells were treated with PMB (Sigma-Aldrich, St Louis, Mont., USA) to different times and concentrations (0-24-48 and 72 hours, concentrations from 0.01 a 1,000 μg/ml). The treatments were kept for 24, 48 and 72 h, in which cells were kept into RPMI-1640 medium supplemented at 37° C. 5% CO2. After the treatments cells were harvested in buffer IF (PBS 2% SFB) could without dragging the adherent population. The obtained cells were blocked at 4° C. for 30 min in buffer IF. To determine the CD4+, CD8+y CD4+CD25+FOXP3+ lymphocyte populations, about 10^6 cells to were incubated with Anti-CD8 Ly-2 (BDpharmigen, Mississauga, Ontario, USA) 4° C. for 30 min with constant stirring and CD4+ T lymphocytes and Treg were identified with the kit of marking cells Treg #3 (eBioscience, San Diego, Calif., USA)as the manufacturer protocol. After the incubation cells were re-suspended in buffer IF and analyzed by flow cytometry in the equipment FACSCantoll (Beckett Dickinson, Mississauga, Ontario, USA). The same experiments above described were repeated evaluating the effect of gramicidine, ATP and ATP in presence of two PMB concentrations.

[7] = system: lymphoma EL4 y EL4/ADM, tumor cell lines C1498 y REH; settings: cited from earlier work
[8] = Secondary effects on health condition and regular behavior of treated animals; format: in vivo, mice; settings: effective dose in animals
Protocol: as §2

[9] = total population of spleeny lymphocytes

COc1ccc(CC(=O)NC(N=C(NC#N)Nc2cccc3ncccc23)C(C)(C)C)cc1OC (stereo not drawn) [A740003]
inhibition of the effect induced by ATP 100 μM over CD4+CD25+ population [1]: inhibits only

Nc1ncnc2c1ncn2[C@@H]1O[C@H](COP(=O)(O)OP(=O)(O)OP(=O)(O)O)[C@@H](O)[C@H]1O [ATP]
death of systemic regulating T lymphocytes in spleen, drug alone [2]: does not induce the death | death of human Treg cells [3]: induces the death of Treg cells | prophylaxis against the development of tumor b16 [4]: induces prophylaxis

CCOc1ccc(Nc2ccc(/C(=C3C=C/C(=[N+](/CC)Cc4cccc(S(=O)(=O)[O-])c4)C=C/3C)c3ccc(N(CC)Cc4cccc(S(=O)(=O)[O-])c4)cc3C)cc2)cc1.[Na+] [BBG, Brilliant Blue G]
inhibition of the effect induced by ATP 100 μM over CD4+CD25+ population [1]: only inhibits | inhibition of the effect of low dose PMB and ATP over CD4+CD25+ populations [1]: are inhibited

Cc1nc(N=Nc2ccc(S(=O)(=O)O)cc2S(=O)(=O)O)c(COP(=O)(O)O)c(C=O)c1O [PPADS]
inhibition of the effect of low dose PMB and ATP over CD4+CD25+ populations [1]: are inhibited

gramicidine
effect over CD8 / CD4 (T helper, T cytotoxic) populations [5]: does not induce changes | effect over Treg (CD4+CD25+) population [6, 9]: does not induce changes

polymyxin B [PMB]
cell death in eukaryote tumor cell lines [7]: induces cell death | potentiation of Treg lymphocyte depletion in vivo ([2]; after 72 hrs of in vivo exposition, PMB 150 and 350 μg/Kg with ATP 1 g/Kg): can potentiate the deplexion | PMB dose giving maximum depletion of Tregs lymphocytes ([2]; at a determined ATP dose (1 g/Kg), subcutaneous, FIG. 8): 0.35 mg/kg | dose behavior in depletion of Tregs lymphocytes ([2]; at a determined ATP dose, FIG. 8): linear behavior | death of systemic regulating T lymphocytes in spleen, drug alone [2]: does not induce the death | death of human Treg cells [3]: induces the death of Treg cells | dependence of Treg depletion on P2X7 receptor activation ([1]; 24 hrs culture with PPADS or BBG): partially depends on the P2X7 receptor activation | protection of challenged animals (free of tumor) ([4]; day 20 after inoculation of tumor cells, ATP 500 μM, PMB 10 mg/mL): 60% | protection of challenged animals (free of tumor) ([4]; day 60 post inoculation): 20% | prophylaxis against the development of tumor b16 [4]: induces prophylaxis | increase of effectiveness of antitumor immunotherapy based on tumor cell bodies ([4]; murine melanoma model): 50% | effect over CD8 / CD4 (T helper, T cytotoxic) populations [5, 9]: does not significantly affect; also recorded: without affecting the CD8 population neither the CD4 population | depleting concentration relative to that used in clinical and therapeutic procedures [6]: 100 times lower | modification of the ATP-induced effect on Treg cells ([6]; PMB at 1 μg/ml): slightly modifies the effect induced by ATP | modification of the ATP-induced effect on Treg cells ([6]; PMB at 10 μg/ml): produces a significant change in the response curve to ATP | effect over Treg (CD4+CD25+) population [6, 9]: able to induce the death | PMB concentration at which PMB itself induces Treg cell depletion ([6]; total population of spleeny lymphocytes, FIGS. 1A and 1B): ≥ 1 µg/mL | secondary effects over health condition and regular behavior [8]: does not demonstrate the appearance of secondary effects
